Laboratory results reported in patent US6624149B2, “Method for nucleic acid transfection of cells” (Genteric, Inc., priority 2000, dated 2003).

Tested on: rat salivary gland (submandibular gland)
Test: Intraductal transfection of rat salivary gland with pCMV.FOX.Luc-2, luciferase assay
Type: in vivo
Method: Nucleic acid/transition metal enhancer mixtures were prepared by sequentially adding deionized water or a buffered solution, DNA, and a desired transition metal enhancer to a polystyrene tube with mixing. “Free” (i.e., “Naked”) DNA controls were prepared by sequentially adding DNA to water or a buffered solution
Male Sprague-Dawley rats (260-280 g) were fasted the night prior to treatment. After administration of the anesthesia (see Section 6.1.3), both right and left salivary gland ducts (specifically, Wharton's duct) were cannulated with fine polyurethane tubing (i.d. 0.005″) and cemented into the desired location. Atropine was then administered subcutaneously (0.5 mg/kg) and, after eight minutes, 50 μl of the nucleic acid/transition metal enhancer mixture was injected, infused, instilled or administered at the ductal orifice or directly into the duct at any point along its length. See Goldfine, Nature Biotechnology 15:1378, 1997.
Regardless of whether a liposome/transition metal/nucleic acid mixture or a nucleic acid/transition metal enhancer mixture was delivered, the tubing and mixture was kept in place for ten additional minutes after application of the mixture prior to removal. At 48 hours post atropine administration, the rats were anesthetized by intraperitoneal injection of pentobarbital (50 mg/kg). The right and left submandibular glands were surgically removed, and the tissues were assayed for any observable reporter gene (luciferase of hGH) expression using the methods described below.
The presently claimed invention describes a new method using a combination of a transition metal enhancer and a nucleic acid of interest for gene delivery. The present invention provides a method which may enhance gene expression by improving the efficiency of gene delivery. This change in gene expression can be quantitated using various assays, such as the luciferase assay. de Wet et al., Molec. Cell Biol. 7:725, 1987. In various experiments described herein, the right and left submandibular glands were removed from the male Sprague-Dawley rats at 48 hours post administration of the pCMV.FOX.Luc-2 containing solution. In additional experiments other organs, such as the rat lungs, were used.
In experiments in which submandibular glands were tested, the amount of luciferase present in the right and left submandibular gland of each male Sprague-Dawley rat was measured independently and treated as separate, individual experiments (e.g., trials) because the amount of luciferase expressed by one submandibular gland is independent of the amount of luciferase expressed in the other submandibular gland. Therefore, each submandibular gland was independently lysed in lysis buffer (1.0 ml buffer per 0.1 g tissue) to create a lysis homogenate. The lysis buffer contained 100 mM K2PO4 pH 7.0, 1 mM dithiothreitol, and 1% Triton X-100. A 100 μl aliquot of lysis homogenate from each submandibular gland was analyzed for luciferase activity (de Wet et al., Molec. Cell Biol. 7:725, 1987) using a Monolight 2010 luminometer (Analytical Luminescence Laboratories). Accordingly, luciferase light emissions from each aliquot of the lysis homogenate were measured over a ten second period.
Activity was expressed as relative light units, values collectively representing the assay conditions, luciferase concentration, luminometer photomultiplier tube sensitivity and background. Using well known techniques, the luciferase light units may be converted, for example, to picograms of luciferase protein. See, e.g., Felgner et al., U.S. Pat. No. 5,580,899 at Example 13. All experiments were performed in duplicate. In experiments using submandibular glands, data from each individual submandibular gland lysis homogenate is reported as a single trial.

[Cl][Ni][Cl] [Ni, nickel chloride]
Average relative light units (Table 2, metal chloride 0.3 mM, 32 μg DNA in 50 μl, 48 hours, eight glands): 18391 relative light units | Average relative light units (Table 2, metal chloride 0.9 mM, 32 μg DNA in 50 μl, 48 hours, eight glands): 65121 relative light units

[Cl][Cu] [Cu, cuprous chloride]
Average relative light units (Table 3, metal chloride 0.6 mM, 32 μg DNA in 50 μl, Tris-HCl/EDTA, 48 hours, eight glands): 17667 relative light units | Average relative light units (Table 3, metal chloride 0.9 mM, 32 μg DNA in 50 μl, Tris-HCl/EDTA, 48 hours, eight glands): 42204 relative light units | Average relative light units (Table 3, metal chloride 1.2 mM, 32 μg DNA in 50 μl, Tris-HCl/EDTA, 48 hours, eight glands): 17194 relative light units

[Cl][Co][Cl] [CoCl2, cobalt chloride]
Average relative light units (Table 4, CoCl2 0.3 mM, 32 μg DNA in 50 μl, 48 hours): 37219 relative light units | Average relative light units (Table 4, CoCl2 0.9 mM, 32 μg DNA in 50 μl, 48 hours): 44926 relative light units

O=S(=O)([O-])[O-].[Zn+2] [ZnSO4, zinc sulfate]
Average relative light units (Table 6, zinc 3.6 mM, 128 μg DNA in 50 μl, 48 hours): 355676 relative light units

CC(=O)[O-].CC(=O)[O-].[Zn+2] [Zn(CH3CO2)2, zinc acetate]
Average relative light units (rat, in vivo): 309965 relative light units
